According to patent US20250003953A1, “Methods and Model Systems for Assessing Therapeutic Properties of Candidate Agents and Related Computer Readable Media and Systems” (The Regents of the University of California, priority 2021, published 2025):

Columns and labels:
[1] = tested on: H1373 KRAS.G12C mutant line; assay: Multi-arm combination therapy in-vivo mouse study; conditions: in combination with ARS1620; for synergy in tumor growth reduction: compared to null model of independence
Method: Bliss drug synergy is plotted and several compounds show significant drug synergy with multiple KRAS.G12C inhibitors.
Using the GENEVA dataset of ARS-1620 in a fourteen day drug treatment timeline in which drug resistance developed, gene expression indicators of resistance mechanisms were obtained (FIG. 4A). […] The strongest GENEVA prediction, mTOR resistance, was tested in a multi-arm in vivo mouse study and significant in vivo Bliss drug synergy and tumor reduction over time was found (FIG. 4C,D).
The GENEVA datasets were compared where GENEVA pools were drugged with the KRAS.G12C inhibitor ARS1620, conducted both in vitro and in vivo. Specifically, the in vitro data were compared against the in vivo data to look for differences and similarities attributable to the context of the model systems used. […] As a validation study, a combination therapy multi-arm in vivo mouse study was designed to test the efficacy of an EMT inhibitor, Galunisertib in combination with ARS1620.

[2] = tested on: panel of G12C and non G12C lines pooled in vivo as xenografts; assay: GENEVA combination therapy study in cell line pools in vivo as xenografts; set-up: species or system mouse; conditions: in combination with ARS1620; for drug synergy from cell cycle active/inactive proportions: G12C lines
Method: Treatment conditions include Antimycin, ARS1620, Galunisertib, INK128, DMSO, ARS1620+Antimycin, ARS1620+Galunisertib, ARS1620+INK128. FIG. 8B utilizes GENEVA data from FIG. 8A for synergy calculations performed on cell cycle states in each drug condition singly and in combination estimated for G12C lines across drug conditions.
2 mL of Matrigel Basement Membrane reagent was added to the GENEVA pool prepared by growth rate balancing for a final concentration of 20M/mL. One hundred microliters of this solution was injected into NSG mice in a flank xenograft injection. Twenty-four hours later, mice harboring GENEVA tumors were drugged with the drug compound in a vehicle solution of 5% DMSO, 95% Labrasol. Mice were dosed by oral gavage four fourteen days with five days on, two days off. On the fourteenth day, mice were sacrificed, tumors harvested by homogenization with surgical shears and resuspended in 5 mg/mL Liberase™ Cell Dissociation Reagent in 1:1 DMEM: F12 cell media, DNAse I (10 U/uL). Tumors were incubated in a 37° C. incubator with shaking at 600 RPMs for 45 minutes for enzymatic dissociation and then spun down at 800 g for 5 minutes at 4° C. Dissociated tumors were resuspended in 100 uL 1×PBS.
A panel of G12C and non G12C lines pooled in vivo as xenografts was utilized to conduct combination therapy studies comparing ARS1620 with and without Galunisertib, INK128, and Antimycin for a total of eight different treatment conditions; these compounds were taken from our combination therapy discoveries and mechanistic understanding of mitochondrial action of ARS1620 (FIG. 8A).

lipid peroxidation = assay: Lipid peroxidation live cell probe dose curve and survival kinetics; format: cell-based; conditions: dose curves
Excerpt: FIG. 7B plots gene expression of anti-ferroptotic genes for each cell line in response to increasing ARS1620 dosage. […] Lipid peroxidation and survival kinetics cross over around IC50 in all compounds indicating ARS1620 performs as a ferroptosis inducing agent.
Among this group of genes were FTH1 and FTL, the two components of the Ferritin Complex, which is responsible for sequestration of labile free iron. Using a lipid peroxidation live cell probe, lipid peroxidation—one of the hallmark phenotypes of ferroptosis—was measured in response to ARS-1620 treatment.

Row | Compound | synergy in tumor growth reduction [1] | gene-level synergy on mitochondrial reads (linear model) [2] | drug synergy from cell cycle active/inactive proportions [2] | cross-over of survival and normalized lipid peroxidation curves (lipid peroxidation) | suppression of tumor growth (relative tumor volume) ([1]; n=4-5 mice per condition)
1 | CC(C)n1nc(-c2ccc3oc(N)nc3c2)c2c(N)ncnc21 [INK128] | synergistically reduce tumor growth in-vivo | further increase the synergistic decrease in mitochondrial reads | relative in vivo synergy |  | 
2 | antimycin |  |  | antagonistic effect |  | 
3 | CN(C)c1nc(N(C)C)nc(N(C)C)n1 [Altretamine] |  |  |  | crossed over around the IC50 survival value | 
4 | Cc1cccc(-c2nn3c(c2-c2ccnc4ccc(C(N)=O)cc24)CCC3)n1 [Galunisertib] | reduce growth synergistically | further increase the synergistic decrease in mitochondrial reads | relative in vivo synergy |  | extremely effective in suppressing tumor growth
